# Article PMC2585076, “Development of selective blockers for Ca^2+-activated Cl^- channel using Xenopus laevis oocytes with an improved drug screening strategy” (Molecular Brain, 2008)
# Where two headings read alike, the source gives them in different places.
# Columns and labels:
# [1] = target: T1, Ca^2+-activated Cl^- channel (CaCC) (Xenopus laevis, UniProt B5SVV6); settings: endogenous CaCCs in Xenopus laevis oocytes, TEVC; read-out: IC50 * (IC50 previously studied); cited from earlier work
# T1 sequence (B5SVV6 entry or part of it): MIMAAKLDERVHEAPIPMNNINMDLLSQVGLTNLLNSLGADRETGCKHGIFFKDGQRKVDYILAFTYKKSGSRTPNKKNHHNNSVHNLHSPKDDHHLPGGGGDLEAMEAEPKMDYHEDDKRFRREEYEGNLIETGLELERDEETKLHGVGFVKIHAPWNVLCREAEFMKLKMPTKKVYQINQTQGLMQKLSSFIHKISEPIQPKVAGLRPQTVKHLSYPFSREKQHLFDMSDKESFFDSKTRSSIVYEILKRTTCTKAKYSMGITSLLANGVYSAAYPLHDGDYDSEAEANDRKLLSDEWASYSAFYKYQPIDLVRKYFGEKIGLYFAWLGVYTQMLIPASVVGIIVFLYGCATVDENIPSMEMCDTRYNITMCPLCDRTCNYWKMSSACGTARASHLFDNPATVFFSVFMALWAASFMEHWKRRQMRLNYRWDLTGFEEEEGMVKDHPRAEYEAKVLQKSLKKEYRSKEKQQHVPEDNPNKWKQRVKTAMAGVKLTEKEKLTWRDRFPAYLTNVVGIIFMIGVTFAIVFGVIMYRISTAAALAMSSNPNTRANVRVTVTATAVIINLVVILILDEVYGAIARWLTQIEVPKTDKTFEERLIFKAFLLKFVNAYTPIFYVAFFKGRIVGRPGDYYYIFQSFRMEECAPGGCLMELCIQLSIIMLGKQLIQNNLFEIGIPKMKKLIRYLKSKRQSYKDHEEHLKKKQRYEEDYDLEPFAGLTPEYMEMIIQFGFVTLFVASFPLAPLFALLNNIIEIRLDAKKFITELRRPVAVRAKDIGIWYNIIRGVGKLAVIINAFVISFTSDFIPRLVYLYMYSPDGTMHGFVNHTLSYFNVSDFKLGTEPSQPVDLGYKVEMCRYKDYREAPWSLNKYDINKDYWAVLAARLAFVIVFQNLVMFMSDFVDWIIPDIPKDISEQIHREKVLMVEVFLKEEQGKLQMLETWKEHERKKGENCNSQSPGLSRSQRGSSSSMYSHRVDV
# [2] = target: T1, Ca^2+-activated Cl^- channel (CaCC); type: cell-based; settings: block of Cl^- current induced by 5 mM external Ca^2+, ionomycin then thapsigargin treated oocytes, chelerythrine in intracellular solution, holding potential -60 mV
# Protocol: To exclude the effect of PKC in CaCC current, PKC inhibitor chelerythrine was added to the intracellular solution. […] Additional variability in peak amplitude can come from the Ca^2+ induced Ca^2+ release from intracellular stores. To eliminate the contribution of Ca^2+ release from intracellular stores, Ca^2+ ATPase inhibitor, thapsigargin was treated on ionomycin pretreated oocytes. […] Therefore, a reliable protocol for drug screening of CaCCs in Xenopus oocytes was established with treatment of 1 μM thapsigargin for 90 min to ionomycin treated oocytes followed by recording with microelectrodes filled with intracellular solution containing 1 μM chelerythrine.
# Using the optimized drug screening protocol, the effect of known blockers of CaCC was tested.
# The animals were anaesthetized by cooling with ice [30]. Ovarian follicles were surgically removed, treated with 2 mg/ml collagenase type IA at room temperature for 90 min in Ca^2+ free Barth's solution containing 89 mM NaCl, 1.0 mM KCl, 2.4 mM NaHCO3, 0.82 mM MgSO4 and 10 mM HEPES (pH 7.4). […]
smiles,measurement,setting,value
"O=C(O)c1ccccc1Nc1ccccc1 [DPC, diphenylamine-2-carboxylate]",IC50,[1],111 µM
O=C(O)c1ccccc1Nc1ccccc1[N+](=O)[O-] [N-(2-Nitrophenyl)-anthranilic acid],IC50,[2],low potency
O=C(O)c1ccccc1Nc1ccc(C(F)(F)F)cc1 [N-(4-trifluoromethylphenyl)anthranilic acid],IC50,[2]; read-out: IC50,6 µM
